Assay results as given in the kinase profiling compilation of Christmann-Franck et al. (2016).

Experiments:
Assay in all cases: radiometric filter-binding kinase assay, Kinase HotSpot
Conditions in all cases: compound 0.5 µM; ATP 10 µM
ABL1 (human) = ABL1 (human) (UniProt P00519)
ABL2 (human) = ABL2 (human) (UniProt P42684)
ADRBK1 (human) = ADRBK1 (human) (UniProt P25098)
AKT3 (human) = AKT3 (human) (UniProt Q9Y243)
BTK (human) = BTK (human) (UniProt Q06187)
CAMK1 (human) = CAMK1 (human) (UniProt Q14012)
CAMK2A (human) = CAMK2A (human) (UniProt Q9UQM7)
CAMK4 (human) = CAMK4 (human) (UniProt Q16566)
CDK1 CCNA2 (human) = CDK1 CCNA2 (human) (UniProt P06493+P20248)
CDK2 CCNA2 (human) = CDK2 CCNA2 (human) (UniProt P24941+P20248)
Sequence of CDK2 CCNA2 (human) (P20248 whole entry, looked up, other chains not shown): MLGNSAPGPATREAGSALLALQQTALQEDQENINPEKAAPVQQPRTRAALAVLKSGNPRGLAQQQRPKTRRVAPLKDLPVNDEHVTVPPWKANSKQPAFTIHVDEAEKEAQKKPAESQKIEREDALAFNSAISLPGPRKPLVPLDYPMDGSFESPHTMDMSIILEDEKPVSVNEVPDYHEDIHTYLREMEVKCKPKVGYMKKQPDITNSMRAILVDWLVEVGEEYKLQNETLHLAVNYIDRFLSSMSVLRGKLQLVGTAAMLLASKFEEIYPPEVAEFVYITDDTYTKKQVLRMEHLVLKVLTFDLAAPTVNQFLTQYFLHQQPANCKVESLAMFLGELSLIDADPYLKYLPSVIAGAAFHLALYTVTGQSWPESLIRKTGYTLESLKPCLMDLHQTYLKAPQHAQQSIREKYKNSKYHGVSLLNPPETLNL

CDK2 CCNE1 (human) = CDK2 CCNE1 (human) (UniProt P24941+P24864)
CDK7 CCNH MNAT1 (human) = CDK7 CCNH MNAT1 (human) (UniProt P50613+P51948+P51946)
CHUK (human) = CHUK (human) (UniProt O15111)
CSNK1G2 (human) = CSNK1G2 (human) (UniProt P78368)
DYRK4 (human) = DYRK4 (human) (UniProt Q9NR20)
EPHA8 (human) = EPHA8 (human) (UniProt P29322)
GSG2 (human) = GSG2 (human) (UniProt Q8TF76)
Sequence of GSG2 (human) (Q8TF76 whole entry, looked up): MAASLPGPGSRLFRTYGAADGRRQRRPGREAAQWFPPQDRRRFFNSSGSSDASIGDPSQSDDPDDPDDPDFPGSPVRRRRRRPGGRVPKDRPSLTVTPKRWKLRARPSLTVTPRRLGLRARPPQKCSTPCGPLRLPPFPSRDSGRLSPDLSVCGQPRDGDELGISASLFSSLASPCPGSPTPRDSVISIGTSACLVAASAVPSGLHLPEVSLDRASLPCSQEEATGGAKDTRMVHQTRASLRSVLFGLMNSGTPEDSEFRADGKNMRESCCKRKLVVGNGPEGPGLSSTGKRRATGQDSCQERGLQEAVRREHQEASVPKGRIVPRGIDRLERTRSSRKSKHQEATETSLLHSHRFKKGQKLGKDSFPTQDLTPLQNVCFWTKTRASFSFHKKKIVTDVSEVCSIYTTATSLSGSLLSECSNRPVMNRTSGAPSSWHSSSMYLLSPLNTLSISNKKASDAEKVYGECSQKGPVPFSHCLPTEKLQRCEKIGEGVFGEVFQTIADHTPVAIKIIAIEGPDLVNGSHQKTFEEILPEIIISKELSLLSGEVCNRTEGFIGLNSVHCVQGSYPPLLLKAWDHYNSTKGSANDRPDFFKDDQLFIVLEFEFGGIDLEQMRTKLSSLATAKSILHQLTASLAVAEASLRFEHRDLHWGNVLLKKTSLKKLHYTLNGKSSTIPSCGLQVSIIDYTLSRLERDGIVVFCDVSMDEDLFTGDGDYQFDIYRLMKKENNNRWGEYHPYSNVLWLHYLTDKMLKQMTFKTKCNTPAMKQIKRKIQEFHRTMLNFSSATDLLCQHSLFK

GSK3A (human) = GSK3A (human) (UniProt P49840)
IKBKB (human) = IKBKB (human) (UniProt O14920)
INSRR (human) = INSRR (human) (UniProt P14616)
LTK (human) = LTK (human) (UniProt P29376)
MAP3K3 (human) = MAP3K3 (human) (UniProt Q99759)
MAPK10 (human) = MAPK10 (human) (UniProt P53779)
MAPK3 (human) = MAPK3 (human) (UniProt P27361)
Sequence of MAPK3 (human) (P27361 whole entry, looked up): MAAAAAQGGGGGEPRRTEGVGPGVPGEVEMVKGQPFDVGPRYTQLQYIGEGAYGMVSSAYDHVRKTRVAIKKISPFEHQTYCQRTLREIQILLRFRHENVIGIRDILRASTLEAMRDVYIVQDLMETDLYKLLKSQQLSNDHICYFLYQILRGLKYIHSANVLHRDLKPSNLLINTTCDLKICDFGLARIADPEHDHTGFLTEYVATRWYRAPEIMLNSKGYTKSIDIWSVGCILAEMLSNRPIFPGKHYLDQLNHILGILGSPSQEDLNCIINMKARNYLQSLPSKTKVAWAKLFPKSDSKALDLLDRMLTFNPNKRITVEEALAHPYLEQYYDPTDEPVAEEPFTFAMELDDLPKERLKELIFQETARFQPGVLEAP

MATK (human) = MATK (human) (UniProt P42679)
MET (human) = MET (human) (UniProt P08581)
MST1R (human) = MST1R (human) (UniProt Q04912)
MYLK (human) = MYLK (human) (UniProt Q15746)
MYLK2 (human) = MYLK2 (human) (UniProt Q9H1R3)
NTRK1 (human) = NTRK1 (human) (UniProt P04629)
Sequence of NTRK1 (human) (P04629 whole entry, looked up): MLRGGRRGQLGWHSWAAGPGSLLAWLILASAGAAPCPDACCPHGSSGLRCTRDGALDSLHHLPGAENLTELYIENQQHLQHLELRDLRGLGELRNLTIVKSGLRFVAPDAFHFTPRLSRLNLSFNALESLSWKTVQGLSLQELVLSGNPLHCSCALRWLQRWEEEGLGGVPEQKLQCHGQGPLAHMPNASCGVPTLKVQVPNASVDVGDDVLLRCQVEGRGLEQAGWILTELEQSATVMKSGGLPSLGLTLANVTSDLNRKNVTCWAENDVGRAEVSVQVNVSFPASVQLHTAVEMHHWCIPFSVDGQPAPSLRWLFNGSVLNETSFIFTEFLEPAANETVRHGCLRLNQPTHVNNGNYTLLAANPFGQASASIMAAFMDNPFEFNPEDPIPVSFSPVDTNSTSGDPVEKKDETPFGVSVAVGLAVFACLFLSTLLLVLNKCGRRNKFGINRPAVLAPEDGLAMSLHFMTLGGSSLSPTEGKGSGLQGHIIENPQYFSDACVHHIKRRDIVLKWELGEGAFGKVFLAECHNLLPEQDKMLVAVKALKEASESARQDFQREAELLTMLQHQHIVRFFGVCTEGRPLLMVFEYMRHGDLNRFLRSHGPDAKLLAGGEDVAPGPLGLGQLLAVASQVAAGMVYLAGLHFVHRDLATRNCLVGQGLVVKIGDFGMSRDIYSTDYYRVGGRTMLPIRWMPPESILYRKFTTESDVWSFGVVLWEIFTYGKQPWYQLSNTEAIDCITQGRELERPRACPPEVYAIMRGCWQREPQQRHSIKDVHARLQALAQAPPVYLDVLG

NTRK3 (human) = NTRK3 (human) (UniProt Q16288)
Sequence of NTRK3 (human) (Q16288 whole entry, looked up): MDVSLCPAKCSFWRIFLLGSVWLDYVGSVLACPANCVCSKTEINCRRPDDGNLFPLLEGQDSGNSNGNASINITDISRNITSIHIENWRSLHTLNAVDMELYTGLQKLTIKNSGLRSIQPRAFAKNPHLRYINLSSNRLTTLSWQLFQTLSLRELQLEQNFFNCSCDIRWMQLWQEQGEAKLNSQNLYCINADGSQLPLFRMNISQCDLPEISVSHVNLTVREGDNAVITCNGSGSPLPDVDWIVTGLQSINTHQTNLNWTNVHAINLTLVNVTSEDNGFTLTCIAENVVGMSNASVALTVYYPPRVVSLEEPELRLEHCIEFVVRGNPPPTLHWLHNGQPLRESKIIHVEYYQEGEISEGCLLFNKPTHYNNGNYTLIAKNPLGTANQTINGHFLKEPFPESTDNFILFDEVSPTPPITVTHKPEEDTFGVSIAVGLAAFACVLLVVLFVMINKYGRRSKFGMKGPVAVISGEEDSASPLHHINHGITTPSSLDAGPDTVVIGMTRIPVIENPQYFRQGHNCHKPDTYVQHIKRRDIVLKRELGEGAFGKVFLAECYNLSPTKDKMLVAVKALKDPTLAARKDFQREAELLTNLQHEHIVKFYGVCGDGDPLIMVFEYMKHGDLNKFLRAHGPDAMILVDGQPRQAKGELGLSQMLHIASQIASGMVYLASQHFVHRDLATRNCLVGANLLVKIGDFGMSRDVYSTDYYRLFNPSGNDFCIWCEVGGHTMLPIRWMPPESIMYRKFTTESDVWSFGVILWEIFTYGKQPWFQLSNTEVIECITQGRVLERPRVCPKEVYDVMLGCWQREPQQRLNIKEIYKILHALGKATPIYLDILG

PAK2 (human) = PAK2 (human) (UniProt Q13177)
PKN1 (human) = PKN1 (human) (UniProt Q16512)
PRKD1 (human) = PRKD1 (human) (UniProt Q15139)
Sequence of PRKD1 (human) (Q15139 whole entry, looked up): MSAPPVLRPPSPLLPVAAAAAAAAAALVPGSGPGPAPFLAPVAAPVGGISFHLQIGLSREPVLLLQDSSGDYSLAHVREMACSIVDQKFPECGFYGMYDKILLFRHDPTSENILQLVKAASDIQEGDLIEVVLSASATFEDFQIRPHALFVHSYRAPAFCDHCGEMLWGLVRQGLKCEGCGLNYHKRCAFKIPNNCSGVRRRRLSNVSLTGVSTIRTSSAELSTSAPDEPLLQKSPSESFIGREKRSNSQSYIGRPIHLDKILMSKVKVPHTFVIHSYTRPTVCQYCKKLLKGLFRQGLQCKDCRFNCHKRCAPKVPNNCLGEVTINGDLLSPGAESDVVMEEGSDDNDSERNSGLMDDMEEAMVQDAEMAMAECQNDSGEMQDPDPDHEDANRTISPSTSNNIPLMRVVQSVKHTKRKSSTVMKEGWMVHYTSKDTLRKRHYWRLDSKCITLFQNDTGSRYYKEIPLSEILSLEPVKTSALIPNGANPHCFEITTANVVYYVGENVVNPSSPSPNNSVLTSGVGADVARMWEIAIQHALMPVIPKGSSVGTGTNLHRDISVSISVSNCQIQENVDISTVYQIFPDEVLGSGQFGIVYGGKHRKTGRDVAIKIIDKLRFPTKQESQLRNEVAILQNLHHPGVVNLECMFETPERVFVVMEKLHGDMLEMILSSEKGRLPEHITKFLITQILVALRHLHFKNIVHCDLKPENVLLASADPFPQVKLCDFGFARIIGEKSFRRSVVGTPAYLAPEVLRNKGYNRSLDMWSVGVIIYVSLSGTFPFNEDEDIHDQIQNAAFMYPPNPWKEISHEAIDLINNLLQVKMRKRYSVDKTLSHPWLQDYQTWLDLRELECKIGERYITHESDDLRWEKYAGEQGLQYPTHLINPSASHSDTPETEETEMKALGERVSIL

PRKX (human) = PRKX (human) (UniProt P51817)
Sequence of PRKX (human) (P51817 whole entry, looked up): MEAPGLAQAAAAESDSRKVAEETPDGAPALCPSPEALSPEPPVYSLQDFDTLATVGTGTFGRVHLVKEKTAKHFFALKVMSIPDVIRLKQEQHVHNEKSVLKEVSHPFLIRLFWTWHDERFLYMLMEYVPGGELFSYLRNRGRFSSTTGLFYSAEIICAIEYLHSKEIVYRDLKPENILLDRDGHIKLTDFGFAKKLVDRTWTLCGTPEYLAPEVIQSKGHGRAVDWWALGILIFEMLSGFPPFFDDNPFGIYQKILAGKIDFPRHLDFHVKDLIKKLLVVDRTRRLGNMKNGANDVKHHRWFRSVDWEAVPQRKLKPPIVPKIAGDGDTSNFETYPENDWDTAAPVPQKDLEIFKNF

PTK6 (human) = PTK6 (human) (UniProt Q13882)
Sequence of PTK6 (human) (Q13882 whole entry, looked up): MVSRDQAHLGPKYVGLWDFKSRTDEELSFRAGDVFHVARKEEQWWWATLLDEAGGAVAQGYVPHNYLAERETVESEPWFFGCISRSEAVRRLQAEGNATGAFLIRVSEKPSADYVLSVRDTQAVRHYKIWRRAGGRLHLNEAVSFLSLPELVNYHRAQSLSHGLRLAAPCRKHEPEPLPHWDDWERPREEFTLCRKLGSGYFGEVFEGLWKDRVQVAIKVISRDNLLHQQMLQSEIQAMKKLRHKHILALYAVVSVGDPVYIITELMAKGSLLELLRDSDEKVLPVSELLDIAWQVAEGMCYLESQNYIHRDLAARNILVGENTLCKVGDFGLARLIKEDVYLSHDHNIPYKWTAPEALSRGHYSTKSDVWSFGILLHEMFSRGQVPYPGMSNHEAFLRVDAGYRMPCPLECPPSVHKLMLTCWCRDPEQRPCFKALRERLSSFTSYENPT

RIPK2 (human) = RIPK2 (human) (UniProt O43353)
SRPK1 (human) = SRPK1 (human) (UniProt Q96SB4)
STK25 (human) = STK25 (human) (UniProt O00506)
STK3 (human) = STK3 (human) (UniProt Q13188)
TBK1 (human) = TBK1 (human) (UniProt Q9UHD2)
ULK2 (human) = ULK2 (human) (UniProt Q8IYT8)

## COc1cc2ncnc(Nc3ccc(O)c(Br)c3)c2cc1OC
ABL1 (human)
  residual activity: 79.4%
ABL2 (human)
  residual activity: 58.4%
ADRBK1 (human)
  residual activity: 99%
AKT3 (human)
  residual activity: 101%
BTK (human)
  residual activity: 85.5%
CAMK1 (human)
  residual activity: 103%
CAMK2A (human)
  residual activity: 98%
CAMK4 (human)
  residual activity: 95.6%
CDK1 CCNA2 (human)
  residual activity: 101%
CDK2 CCNA2 (human)
  residual activity: 88.7%
CDK2 CCNE1 (human)
  residual activity: 95.7%
CDK7 CCNH MNAT1 (human)
  residual activity: 97%
CHUK (human)
  residual activity: 107%
CSNK1G2 (human)
  residual activity: 96.4%
DYRK4 (human)
  residual activity: 101%
EPHA8 (human)
  residual activity: 88.3%
GSG2 (human)
  residual activity: 84.8%
GSK3A (human)
  residual activity: 131%
IKBKB (human)
  residual activity: 88.1%
INSRR (human)
  residual activity: 96.8%
LTK (human)
  residual activity: 5.44%
MAP3K3 (human)
  residual activity: 82%
MAPK10 (human)
  residual activity: 89%
MAPK3 (human)
  residual activity: 97%
MATK (human)
  residual activity: 98%
MET (human)
  residual activity: 96.4%
MST1R (human)
  residual activity: 101%
MYLK (human)
  residual activity: 84.6%
MYLK2 (human)
  residual activity: 87.3%
NTRK1 (human)
  residual activity: 96.4%
NTRK3 (human)
  residual activity: 83.4%
PAK2 (human)
  residual activity: 90.6%
PKN1 (human)
  residual activity: 95.6%
PRKD1 (human)
  residual activity: 70.1%
PRKX (human)
  residual activity: 89.2%
PTK6 (human)
  residual activity: 20.1%
RIPK2 (human)
  residual activity: 36.7%
SRPK1 (human)
  residual activity: 91.8%
STK25 (human)
  residual activity: 99.6%
STK3 (human)
  residual activity: 89.6%
TBK1 (human)
  residual activity: 84.7%
ULK2 (human)
  residual activity: 104%

## CCc1nc(-c2ccc(OC)cc2)[nH]c1-c1ccncc1
ABL1 (human)
  residual activity: 101%
ABL2 (human)
  residual activity: 98.3%
ADRBK1 (human)
  residual activity: 101%
AKT3 (human)
  residual activity: 101%
BTK (human)
  residual activity: 106%
CAMK1 (human)
  residual activity: 108%
CAMK2A (human)
  residual activity: 105%
CAMK4 (human)
  residual activity: 97.5%
CDK1 CCNA2 (human)
  residual activity: 91.8%
CDK2 CCNA2 (human)
  residual activity: 99.5%
CDK2 CCNE1 (human)
  residual activity: 93.7%
CDK7 CCNH MNAT1 (human)
  residual activity: 97.3%
CHUK (human)
  residual activity: 104%
CSNK1G2 (human)
  residual activity: 97.7%
DYRK4 (human)
  residual activity: 100%
EPHA8 (human)
  residual activity: 93.5%
GSG2 (human)
  residual activity: 55.9%
GSK3A (human)
  residual activity: 99.1%
IKBKB (human)
  residual activity: 106%
INSRR (human)
  residual activity: 102%
LTK (human)
  residual activity: 106%
MAP3K3 (human)
  residual activity: 99%
MAPK10 (human)
  residual activity: 100%
MAPK3 (human)
  residual activity: 99.9%
MATK (human)
  residual activity: 94.1%
MET (human)
  residual activity: 97.7%
MST1R (human)
  residual activity: 101%
MYLK (human)
  residual activity: 104%
MYLK2 (human)
  residual activity: 101%
NTRK1 (human)
  residual activity: 106%
NTRK3 (human)
  residual activity: 103%
PAK2 (human)
  residual activity: 90.7%
PKN1 (human)
  residual activity: 97%
PRKD1 (human)
  residual activity: 100%
PRKX (human)
  residual activity: 93.3%
PTK6 (human)
  residual activity: 88.5%
RIPK2 (human)
  residual activity: 95%
SRPK1 (human)
  residual activity: 106%
STK25 (human)
  residual activity: 116%
STK3 (human)
  residual activity: 104%
TBK1 (human)
  residual activity: 99.7%
ULK2 (human)
  residual activity: 98%

## O=C1NC(=O)c2cc(Nc3ccc(F)cc3)c(Nc3ccc(F)cc3)cc21
ABL1 (human)
  residual activity: 95.7%
ABL2 (human)
  residual activity: 89.6%
ADRBK1 (human)
  residual activity: 104%
AKT3 (human)
  residual activity: 100%
BTK (human)
  residual activity: 94.3%
CAMK1 (human)
  residual activity: 104%
CAMK2A (human)
  residual activity: 103%
CAMK4 (human)
  residual activity: 98.7%
CDK1 CCNA2 (human)
  residual activity: 96.1%
CDK2 CCNA2 (human)
  residual activity: 95.3%
CDK2 CCNE1 (human)
  residual activity: 94.3%
CDK7 CCNH MNAT1 (human)
  residual activity: 100%
CHUK (human)
  residual activity: 99.2%
CSNK1G2 (human)
  residual activity: 97.5%
DYRK4 (human)
  residual activity: 98.6%
EPHA8 (human)
  residual activity: 95.5%
GSG2 (human)
  residual activity: 95.1%
GSK3A (human)
  residual activity: 88.2%
IKBKB (human)
  residual activity: 95.6%
INSRR (human)
  residual activity: 111%
LTK (human)
  residual activity: 99.7%
MAP3K3 (human)
  residual activity: 102%
MAPK10 (human)
  residual activity: 97.3%
MAPK3 (human)
  residual activity: 86.1%
MATK (human)
  residual activity: 93.5%
MET (human)
  residual activity: 96.7%
MST1R (human)
  residual activity: 100%
MYLK (human)
  residual activity: 100%
MYLK2 (human)
  residual activity: 98.7%
NTRK1 (human)
  residual activity: 93.6%
NTRK3 (human)
  residual activity: 95.6%
PAK2 (human)
  residual activity: 98.5%
PKN1 (human)
  residual activity: 97.7%
PRKD1 (human)
  residual activity: 92.2%
PRKX (human)
  residual activity: 103%
PTK6 (human)
  residual activity: 95.1%
RIPK2 (human)
  residual activity: 95%
SRPK1 (human)
  residual activity: 102%
STK25 (human)
  residual activity: 101%
STK3 (human)
  residual activity: 90.7%
TBK1 (human)
  residual activity: 101%
ULK2 (human)
  residual activity: 84.7%
